Reference: ChEMBL document CHEMBL1201862, “PubChem BioAssay data set” (2004)
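Exposure lasted 48 hours, with cells grown in 96-well plates and compounds tested at five concentrations. GI50: concentration for 50% inhibition of growth.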 The source made the active and inactive calls. Rule as the data show it: active = GI50 up to about 1.1 µM and inactive = higher.

Legend:
Assay in all cases: NCI tumour cell line growth inhibition, 48 h
HCT-15 = test system: HCT-15
SN12C = test system: SN12C
SK-OV-3 = test system: SK-OV-3
HCC 2998 = test system: HCC 2998
M14 = test system: M14
Malme-3M = test system: Malme-3M
OVCAR-5 = test system: OVCAR-5
EKVX = test system: EKVX
SF-295 = test system: SF-295
SW-620 = test system: SW-620
MOLT-4 = test system: MOLT-4
NCI-H460 = test system: NCI-H460
HT-29 = test system: HT-29
HL-60 = test system: HL-60
CAKI-1 = test system: CAKI-1
HCT-116 = test system: HCT-116
SNB-75 = test system: SNB-75

Measured: GI50

COc1cccc(C2CC23C(=O)NC(=O)NC3=O)c1 (stereo not drawn)
> 100 µM: HCT-15
inactive: SN12C > 100 µM | SK-OV-3 > 100 µM | HCC 2998 > 100 µM | M14 > 100 µM | Malme-3M > 100 µM | OVCAR-5 > 100 µM | EKVX > 100 µM | SF-295 > 100 µM | SW-620 > 100 µM | MOLT-4 > 100 µM | NCI-H460 > 100 µM | HT-29 > 100 µM | HL-60 > 100 µM | CAKI-1 > 100 µM | HCT-116 > 100 µM

Cc1nc(Nc2ccc(Cl)cc2)sc1C(=O)Nc1cccc2c(=O)[nH][nH]c(=O)c12
21.8 µM: HCT-15
inactive: SN12C 36.1 µM | SNB-75 28 µM | SK-OV-3 52.6 µM | HCC 2998 39.5 µM | M14 17.6 µM | Malme-3M 36 µM | OVCAR-5 36.9 µM | EKVX 8.34 µM | SF-295 24.7 µM | SW-620 25.5 µM | MOLT-4 19 µM | NCI-H460 25.8 µM | HT-29 16.8 µM | HL-60 8.75 µM | CAKI-1 33.2 µM | HCT-116 24 µM

COc1ccc(NC(=O)/C(=N/O)C(C)=O)cc1
17.5 µM: HCT-15
inactive: SN12C > 100 µM | SNB-75 > 100 µM | SK-OV-3 > 100 µM | HCC 2998 > 100 µM | M14 > 100 µM | Malme-3M > 100 µM | OVCAR-5 > 100 µM | EKVX > 100 µM | SF-295 > 100 µM | SW-620 15.8 µM | MOLT-4 > 100 µM | NCI-H460 23.5 µM | HT-29 > 100 µM | HL-60 > 100 µM | CAKI-1 > 100 µM | HCT-116 96.8 µM

N#C/N=C(/N)NCN/C(N)=N\C#N
22.3 µM: HCT-15
inactive: SN12C > 100 µM | SNB-75 > 100 µM | SK-OV-3 > 100 µM | HCC 2998 > 100 µM | M14 > 100 µM | Malme-3M > 100 µM | OVCAR-5 > 100 µM | EKVX > 100 µM | SF-295 > 100 µM | SW-620 17.4 µM | MOLT-4 > 100 µM | NCI-H460 > 100 µM | HT-29 > 100 µM | HL-60 > 100 µM | CAKI-1 > 100 µM | HCT-116 > 100 µM

CC1(C)Oc2ccccc2[N+]([O-])=C1c1ccccc1
> 100 µM: HCT-15
inactive: SN12C > 100 µM | SNB-75 > 100 µM | SK-OV-3 > 100 µM | HCC 2998 > 100 µM | M14 > 100 µM | Malme-3M > 100 µM | SF-295 > 100 µM | SW-620 > 100 µM | MOLT-4 > 100 µM | NCI-H460 > 100 µM | HT-29 > 100 µM | HL-60 > 100 µM | CAKI-1 > 100 µM | HCT-116 > 100 µM

CCOC(=O)C1=C(OC(OCC)C([Se]c2ccccc2)C(C)C)CCC1 (stereo not drawn)
inactive: SN12C 10.4 µM | SNB-75 23 µM | SK-OV-3 81.7 µM | HCC 2998 36.8 µM | M14 15.8 µM | Malme-3M 26.4 µM | OVCAR-5 22.3 µM | EKVX 18.8 µM | SF-295 13.4 µM | MOLT-4 14.7 µM | NCI-H460 16.9 µM | HT-29 19.1 µM | HL-60 3.24 µM | CAKI-1 43.5 µM | HCT-116 12.5 µM
15.2 µM: HCT-15

Nc1ncn([C@@H]2C=C(CO)C(O)C2O)c(=O)n1 (stereo partly drawn)
inactive: SN12C > 100 µM | SK-OV-3 > 100 µM | HCC 2998 56.2 µM | M14 60.1 µM | Malme-3M > 100 µM | OVCAR-5 > 100 µM | EKVX > 100 µM | SF-295 > 100 µM | SW-620 69.8 µM | MOLT-4 56.5 µM | NCI-H460 28.6 µM | HT-29 57.4 µM | HL-60 39.5 µM | CAKI-1 98.4 µM | HCT-116 39.2 µM
60.3 µM: HCT-15

CCC1CN2CCc3cc(OC)c(OC)cc3C2CC1CC1c2cc(OC)c(OC)cc2CCN1C(=O)CNC(=O)OC(C)(C)C (stereo not drawn)
12.3 µM: HCT-15
inactive: SN12C 24.1 µM | SNB-75 20.9 µM | SK-OV-3 28.6 µM | HCC 2998 3.1 µM | M14 > 10 µM | Malme-3M 19.5 µM | OVCAR-5 24.3 µM | EKVX 5.05 µM | SF-295 3.9 µM | SW-620 4.07 µM | MOLT-4 3.44 µM | NCI-H460 6.49 µM | HT-29 3.49 µM | HL-60 4.14 µM | CAKI-1 21.7 µM

CC1=C(C(=O)Nc2ccc([N+](=O)[O-])cc2)C(c2ccccc2F)C(C(=O)Nc2ccc([N+](=O)[O-])cc2)=C(C)N1
inactive: SN12C 8.18 µM | SNB-75 13.9 µM | SK-OV-3 29.8 µM | HCC 2998 5.94 µM | M14 15.1 µM | Malme-3M 13.7 µM | OVCAR-5 35.1 µM | EKVX 8.81 µM | SF-295 20.3 µM | SW-620 21.8 µM | MOLT-4 3.61 µM | NCI-H460 13.6 µM | HT-29 20.1 µM | HL-60 4.7 µM | CAKI-1 18.2 µM | HCT-116 5.13 µM

Cc1cccc2c1Sc1ccccc1C2NC(=O)CCN(C)C (stereo not drawn)
> 100 µM: HCT-15
inactive: SN12C > 100 µM | SNB-75 96.4 µM | SK-OV-3 > 100 µM | HCC 2998 > 100 µM | M14 > 100 µM | OVCAR-5 > 100 µM | EKVX > 100 µM | SW-620 > 100 µM | MOLT-4 > 100 µM | NCI-H460 > 100 µM | HT-29 > 100 µM | HL-60 > 100 µM | HCT-116 > 100 µM

CC1C[C@]2(C[C@@H](C)C(=O)O2)O[C@@H]2CC3(C)[C@@H]4CCC5C(C)(C)OC(=O)C[C@H]6OO[C@]4(CC[C@]3(C)C12)CC56O (stereo partly drawn)
inactive: SN12C > 100 µM | SNB-75 > 100 µM | SK-OV-3 > 100 µM | HCC 2998 > 100 µM | M14 > 100 µM | Malme-3M > 100 µM | OVCAR-5 > 100 µM | SF-295 > 100 µM | SW-620 > 100 µM | NCI-H460 > 100 µM | HT-29 > 100 µM | HL-60 > 100 µM
> 100 µM: HCT-15

CC(C)c1ccccc1NC(=O)C(=O)Cc1nc2ccccc2s1
inactive: SN12C > 100 µM | SNB-75 > 100 µM | SK-OV-3 > 100 µM | HCC 2998 > 100 µM | M14 > 100 µM | Malme-3M > 100 µM | EKVX > 100 µM | SF-295 > 100 µM | SW-620 > 100 µM | MOLT-4 > 100 µM | NCI-H460 > 100 µM | HT-29 > 100 µM | HL-60 > 100 µM | CAKI-1 > 100 µM | HCT-116 > 100 µM
> 100 µM: HCT-15

COc1ccc(/C=C2\C(=O)N(C(=O)Cc3ccccc3)N=C2C)cc1OC
inactive: SN12C > 100 µM | SNB-75 > 100 µM | HCC 2998 > 100 µM | M14 > 100 µM | Malme-3M > 100 µM | OVCAR-5 > 100 µM | EKVX > 100 µM | SF-295 > 100 µM | SW-620 > 100 µM | MOLT-4 > 100 µM | HT-29 > 100 µM | HL-60 > 100 µM | CAKI-1 > 100 µM | HCT-116 > 100 µM
> 100 µM: HCT-15

COC(=O)C(=Cc1cc(OC)c(OC)c(OC)c1-c1cc2c(cc1C1(C)OCCS1)OCO2)C(=O)OC (stereo not drawn)
24.7 µM: HCT-15
inactive: SN12C 44.5 µM | SK-OV-3 38.3 µM | HCC 2998 32.2 µM | Malme-3M 37.3 µM | OVCAR-5 > 100 µM | EKVX 35.6 µM | SF-295 31.6 µM | SW-620 33.2 µM | MOLT-4 24 µM | NCI-H460 26.6 µM | HT-29 37 µM | HL-60 24.9 µM | CAKI-1 19.3 µM | HCT-116 24.6 µM

O=C1OC(=O)c2c1c(-c1ccccc1)nc1ccccc21
> 100 µM: HCT-15
inactive: SN12C > 100 µM | SNB-75 > 100 µM | SK-OV-3 > 100 µM | HCC 2998 > 100 µM | M14 > 100 µM | Malme-3M > 100 µM | EKVX > 100 µM | SF-295 > 100 µM | SW-620 > 100 µM | MOLT-4 > 100 µM | NCI-H460 > 100 µM | HT-29 > 100 µM | HL-60 > 100 µM | CAKI-1 > 100 µM | HCT-116 > 100 µM

COC(=O)c1sc(=NC(=S)N2CCCCC2)sc1C(=O)OC
> 100 µM: HCT-15
inactive: SN12C > 100 µM | SNB-75 > 100 µM | SK-OV-3 > 100 µM | HCC 2998 > 100 µM | M14 > 100 µM | Malme-3M > 100 µM | SW-620 > 100 µM | MOLT-4 > 100 µM | NCI-H460 6.38 µM | HL-60 > 100 µM | CAKI-1 > 100 µM | HCT-116 > 100 µM

COc1ccc(O)cc1 [MEQUINOL]
24.5 µM: HCT-15
inactive: SN12C > 100 µM | SNB-75 > 100 µM | SK-OV-3 > 100 µM | HCC 2998 > 100 µM | M14 53.5 µM | Malme-3M 77.6 µM | OVCAR-5 35.4 µM | EKVX > 100 µM | SW-620 > 100 µM | MOLT-4 74.3 µM | NCI-H460 97.1 µM | HT-29 > 100 µM | HL-60 44.1 µM | CAKI-1 94.4 µM | HCT-116 > 100 µM

CCOP(=O)(OCC)C1=NC=CC=CC1n1c(-c2ccccc2)nn(CC)c1=O (stereo not drawn)
inactive: SN12C > 100 µM | SK-OV-3 > 100 µM | HCC 2998 > 100 µM | Malme-3M > 100 µM | EKVX > 100 µM | SF-295 > 100 µM | SW-620 > 100 µM | MOLT-4 > 100 µM | NCI-H460 > 100 µM | HT-29 > 100 µM | HL-60 > 100 µM | CAKI-1 > 100 µM | HCT-116 > 100 µM
> 100 µM: HCT-15
